From patent US7258984B2, “Compositions and methods for identifying agents which regulate autolytic processes in bacteria” (priority 2001, dated 2007)

How the values were obtained:
Format in all cases: cell-based, Staphylococcus aureus
[1] = tested on: S. aureus rat mutant; assay: TRITON X-100 sensitivity, rat mutant
Protocol: (§1) TRITON® X-100 sensitivity was determined for rat, sarA, and rat-sarA double-mutant strains.
(§2) The effect of TRITON® X-100 on growing cells was determined by diluting cultures grown overnight to an OD650 nm of 0.1 in TSB with varying concentrations of TRITON® X-100. Cells were incubated at 37° C. with shaking and the optical density was recorded hourly for seven to eight hours.
(§3) TRITON® X-100-induced autolysis assays were conducted by diluting cultures grown overnight to an OD650 nm of 0.05 in TSB containing 1 M NaCl. Cells were allowed to grow at 37° C. with shaking until an OD650 nm of 0.7 was reached. Cells were harvested, washed twice with ice cold water and then resuspended in the same volume of 0.05 M Tris-HCl, pH 7.2, containing 0.05% TRITON® X-100. Cells were incubated at 30° C. with shaking and lysis was determined by measuring absorbance at OD600 nm at 30 minutes intervals.

[2] = tested on: S. aureus sarA mutant; assay: TRITON X-100 sensitivity, sarA mutant
Protocol: as §1, §2, §3

[3] = tested on: S. aureus rat-sarA double-mutant; assay: TRITON X-100-induced cell lysis, rat-sarA double mutant; conditions: compared with single mutants
Protocol: as §1, §2, §3

[4] = tested on: S. aureus rat mutant; assay: Penicillin sensitivity assay (growth curve, OD650 nm), rat mutant; conditions: 200 ng/ml (subinhibitory) added at OD650 nm of 0.5, mid-log phase
Protocol: (§4) Rat plays a role in regulating autolytic activity of S. aureus. […] Furthermore, inactivation of the rat locus renders the S. aureus bacteria sensitive to lysis upon growth beyond the mid-log phase. To evaluate whether the cell lysis of the rat mutant was additive to the effect of a subinhibitory concentration of penicillin, 200 ng/ml of penicillin was added to a growing culture of the rat mutant at an OD650 nm of 0.5, corresponding to the mid-log phase. […] This finding is consistent with the additive effect of penicillin upon the lytic propensity of the rat mutant late in the growth cycle. […] In comparison to the parental strain, the rat mutant with subinhibitory concentrations of penicillin has a 3-4 log kill than the parental strain with antibiotics.
(§5) Penicillin sensitivity assays were conducted by diluting rat mutant cultures grown overnight to an OD650 nm of 0.05 in TSB containing the appropriate antibiotics to maintain selection. Cultures were grown at 37° C. with shaking to reach exponential phase (OD650 nm=0.5). Penicillin G was added to a concentration of 0.1 μg/ml. Optical densities at 650 nm were measured every hour for eight to nine hours.

[5] = tested on: wild-type S. aureus; assay: Penicillin sensitivity assay (growth curve, OD650 nm), wild-type strain; conditions: 200 ng/ml (subinhibitory) added at OD650 nm of 0.5, mid-log phase
Protocol: as §4, §5

[6] = tested on: S. aureus rat mutant; assay: Plating of antibiotic-treated cultures on agar plates without antibiotic selection (kill); conditions: subinhibitory concentrations of penicillin; plated on agar without antibiotic selection
Protocol: as §4

[7] = tested on: S. aureus rat deletion mutant; assay: Penicillin-induced lysis, rat deletion mutant (ACL2530); conditions: 100 μg penicillin (3× MIC)
Protocol: (§6) Similar to the rat transposon mutant, the rat deletion mutant was unable to grow to an OD650 nm of 1.7 (early-stationary).
as §5

[8] = tested on: S. aureus complemented strain (ACL2531); assay: Penicillin-induced lysis, complemented strain (ACL2531); conditions: 100 μg penicillin (3× MIC)
Protocol: as §6
as §5, with “Penicillin G was added to a concentration of 0.1 μg/ml.” left out

Substance	TRITON X-100 concentration at which sensitivity was displayed [1] [%]	TRITON X-100 concentration at which sensitivity was displayed [2] [%]	TRITON X-100-induced cell lysis [3]	optical density as the growth cycle progressed after addition of penicillin [4]	optical density as the growth cycle progressed after addition of penicillin [5]	kill of rat mutant compared with the parental strain with antibiotics [6]	lysis in the presence of penicillin [7]	lysis in the presence of penicillin [8]
TRITON® X-100	≥ 0.01	≥ 0.01	more severe defect	–	–	–	–	–
penicillin	–	–	–	further reduction in optical density	no increase in optical density	3-4 log	readily lysed	behaved like wild-type
